The test system of series [1] is Streptococcus mutans. The experiment in a line: Bactericidal activity against Streptococcus mutans UA159 assessed as reduction in bacterial growth at 100 uM after 24 hrs. Type of series: functional, organism-based.
For series [2], the system named is Streptococcus mutans. Put plainly: Antibiofilm activity against Streptococcus mutans UA159 assessed as inhibition of biofilm formation by serial dilution method. Type of series: functional, organism-based.
Series [3] can be described thus: Solubility of compound in water. Type of series: physicochemical.
[4] abbreviates: Streptococcus mutans, UA159, read-out: IC50.

Results on 48 compounds are retold here after ChEMBL document CHEMBL4673385, “Discovery of Potent Inhibitors of Streptococcus mutans Biofilm with Antivirulence Activity” (ACS Med Chem Lett, 2021).

SMILES strings stand for the structures. ≈ marks a conversion by molar mass, not a printed value. Calls of active or inactive are those of the source. The rule behind the calls is not given here.

The IC50 is the point on the concentration scale where inhibition reaches its midpoint. What is called solubility is the concentration that dissolves in the medium under given conditions. In the case of `NC(=O)c1cccc(NC(=O)c2cc3cc([N+](=O)[O-])ccc3o2)c1`, the outcome in the series with Streptococcus mutans [1] was inactive. Also, the IC50 in the series on Streptococcus mutans [2] (setting [4]) stood at 38.8 µM. Moreover, in series [3] (water, read-out: solubility), the solubility is 20 µg/mL (≈ 61.5 µM).

As to `NCc1ccccc1NC(=O)c1cnc2ccccc2c1`, the result with Streptococcus mutans [1] was inactive. Moreover, the solubility in series [3] (water, read-out: solubility) is 5 µg/mL (≈ 18 µM).

Turning to `CC(C)(C)OC(=O)NCc1ccccc1NC(=O)c1cc2ccccc2s1`, the outcome with Streptococcus mutans [1] was inactive. Besides, the IC50 with Streptococcus mutans [2] (setting [4]) was 43.4 µM. In series [3] (water, read-out: solubility), the solubility stood at 20 µg/mL (≈ 52.3 µM).

With `COC(=O)c1ccc(NC(=O)c2ccc(-c3ccccc3)cc2)cc1`, the outcome with Streptococcus mutans [1] was inactive. Also, in the series on Streptococcus mutans [2] (setting [4]), the half-maximal inhibitory concentration (IC50) is over 300 µM.

As to `O=C(Nc1ccccc1)c1ccc2ccccc2c1`, in the series on Streptococcus mutans [1], the outcome was inactive. Further, in the series on Streptococcus mutans [2] (setting [4]), the IC50 is over 300 µM.

Consider `COC(=O)c1ccc(NC(=O)c2cc3ccccc3s2)cc1`, for which the result in the series on Streptococcus mutans [1] was inactive. In addition, in the series with Streptococcus mutans [2] (setting [4]), the 50% inhibitory concentration (IC50) amounted to 41.2 µM. The solubility in series [3] (water, read-out: solubility) was determined as 20 µg/mL (≈ 64.2 µM).

With `COC(=O)c1ccccc1NC(=O)c1ccc2ccccc2n1`, the outcome in the series with Streptococcus mutans [1] was inactive. For the same compound, the IC50 in the series on Streptococcus mutans [2] (setting [4]) was found to be 89.5 µM. Besides, the solubility in series [3] (water, read-out: solubility) was under 5 µg/mL.

Consider `COc1ccc2[nH]c(C(=O)Nc3ccccc3C(N)=O)cc2c1`, for which the outcome in the series on Streptococcus mutans [1] was inactive. For the same compound, in the series on Streptococcus mutans [2] (setting [4]), the half-maximal inhibitory concentration (IC50) was over 300 µM. Further, the solubility in series [3] (water, read-out: solubility) was found to be 10 µg/mL (≈ 32.3 µM).

As for `COC(=O)c1cccc(NC(=O)c2ccc3ccccc3c2)c1`, the outcome in the series on Streptococcus mutans [1] was inactive. The concentration for half-maximal inhibition (IC50) in the series on Streptococcus mutans [2] (setting [4]) was over 300 µM. Besides, the solubility in series [3] (water, read-out: solubility) turned out to be 5 µg/mL (≈ 16.4 µM).

Turning to `NC(=O)c1ccccc1NC(=O)c1ccc2ccccc2n1`, the outcome in the series with Streptococcus mutans [1] was inactive. In addition, the IC50 with Streptococcus mutans [2] (setting [4]) was found to be 165 µM. For the same compound, the solubility in series [3] (water, read-out: solubility) was 10 µg/mL (≈ 34.3 µM).

With `COC(=O)c1ccccc1NC(=O)c1cc2ccccc2s1`, the outcome with Streptococcus mutans [1] was inactive. Besides, the concentration for half-maximal inhibition (IC50) with Streptococcus mutans [2] (setting [4]) was over 300 µM.

`NC(=O)c1ccccc1NC(=O)c1cc2ccccc2s1`: the outcome with Streptococcus mutans [1] was inactive. The IC50 with Streptococcus mutans [2] (setting [4]) came to 45.6 µM. The solubility in series [3] (water, read-out: solubility) was under 5 µg/mL.

As to `NC(=O)c1cccc(NC(=O)c2ccc3ccccc3n2)c1`, the outcome with Streptococcus mutans [1] was inactive. For the same compound, the solubility in series [3] (water, read-out: solubility) was determined as 10 µg/mL (≈ 34.3 µM).

Take `COC(=O)c1cccc(NC(=O)c2cccc3ccccc23)c1`: the outcome in the series with Streptococcus mutans [1] was inactive. The IC50 in the series on Streptococcus mutans [2] (setting [4]) was over 300 µM. In addition, in series [3] (water, read-out: solubility), the solubility was under 5 µg/mL.

For the compound `COC(=O)c1ccccc1NC(=O)c1cnc2ccccc2c1`, in the series on Streptococcus mutans [1], the outcome was inactive. In the series with Streptococcus mutans [2] (setting [4]), the half-inhibitory concentration (IC50) turned out to be 142 µM. Moreover, the solubility in series [3] (water, read-out: solubility) is under 5 µg/mL.

Turning to `COC(=O)c1ccccc1NC(=O)c1cccc2ccccc12`, the outcome in the series on Streptococcus mutans [1] was inactive. Besides, the IC50 with Streptococcus mutans [2] (setting [4]) was over 300 µM. In series [3] (water, read-out: solubility), the solubility was determined as 5 µg/mL (≈ 16.4 µM).

As for `O=C(Nc1ccccc1)c1cc2ccccc2s1`, the outcome in the series on Streptococcus mutans [1] was inactive. Further, the 50% inhibitory concentration (IC50) in the series with Streptococcus mutans [2] (setting [4]) was over 300 µM.

On to `CC(C)(C)OC(=O)NCc1ccccc1NC(=O)c1ccc2ccccc2c1`, for which, in the series with Streptococcus mutans [1], the result was inactive. For the same compound, the IC50 in the series with Streptococcus mutans [2] (setting [4]) came out at 56.8 µM.

For `NC(=O)c1ccc(NC(=O)c2cc3ccccc3s2)cc1`, in the series on Streptococcus mutans [1], the result was inactive. For the same compound, the IC50 in the series with Streptococcus mutans [2] (setting [4]) came out at 45.6 µM. In addition, in series [3] (water, read-out: solubility), the solubility worked out at 25 µg/mL (≈ 84.4 µM).

Turning to `O=C(Nc1ccccc1)c1cnc2ccccc2c1`, the result in the series with Streptococcus mutans [1] was inactive. Further, the IC50 in the series with Streptococcus mutans [2] (setting [4]) is over 300 µM. The solubility in series [3] (water, read-out: solubility) was found to be 5 µg/mL (≈ 20.1 µM).

Take `NC(=O)c1ccccc1NC(=O)c1cc2cc([N+](=O)[O-])ccc2[nH]1`: the outcome in the series on Streptococcus mutans [1] was inactive. Besides, the half-maximal inhibitory concentration (IC50) entry in the series with Streptococcus mutans [2] is on record as “Nd(Insoluble)”. In series [3] (buffer), the solubility entry is “Insoluble”.

Turning to `COC(=O)c1cccc(NC(=O)c2cc3cc(OC)ccc3[nH]2)c1`, in the series on Streptococcus mutans [1], the result was inactive. Also, the IC50 result with Streptococcus mutans [2] is listed as “Nd(Insoluble)”. The solubility result in series [3] (buffer) is given as “Insoluble”.

With `COC(=O)c1cccc(NC(=O)c2cc3ccccc3s2)c1`, the result in the series with Streptococcus mutans [1] was inactive.

As for `NC(=O)c1ccc(NC(=O)c2cc3cc([N+](=O)[O-])ccc3o2)cc1`, the outcome in the series on Streptococcus mutans [1] was inactive. Besides, in the series on Streptococcus mutans [2] (setting [4]), the IC50 was over 300 µM.

`NC(=O)c1ccc(NC(=O)c2cc3cc([N+](=O)[O-])ccc3[nH]2)cc1`: the result in the series on Streptococcus mutans [1] was inactive. Further, the half-maximal inhibitory concentration (IC50) result in the series with Streptococcus mutans [2] was “Nd(Insoluble)”. The solubility entry in series [3] (buffer) was “Insoluble”.

With `NC(=O)c1ccc(NC(=O)c2cnc3ccccc3c2)cc1`, the outcome in the series with Streptococcus mutans [1] was inactive. For the same compound, in the series on Streptococcus mutans [2] (setting [4]), the IC50 was over 300 µM.

As to `NCc1ccccc1NC(=O)c1cc2cc([N+](=O)[O-])ccc2o1`, in the series on Streptococcus mutans [1], the outcome was inactive. Besides, the IC50 in the series with Streptococcus mutans [2] (setting [4]) came out at 98.3 µM. Besides, in series [3] (water, read-out: solubility), the solubility worked out at 5 µg/mL (≈ 16.1 µM).

In the case of `COC(=O)c1ccccc1NC(=O)c1cc2cc([N+](=O)[O-])ccc2s1`, the outcome with Streptococcus mutans [1] was inactive. Besides, the IC50 in the series on Streptococcus mutans [2] (setting [4]) was over 300 µM.

Take `COC(=O)c1ccccc1NC(=O)c1ccc2ccccc2c1`: the result with Streptococcus mutans [1] was inactive. For the same compound, the solubility in series [3] (water, read-out: solubility) turned out to be 25 µg/mL (≈ 81.9 µM).

Regarding `NCc1ccccc1NC(=O)c1ccc(-c2ccccc2)cc1`, the result in the series with Streptococcus mutans [1] was inactive. For the same compound, in the series on Streptococcus mutans [2] (setting [4]), the IC50 amounted to 196 µM.

On to `NCc1ccccc1NC(=O)c1cc2cc([N+](=O)[O-])ccc2s1`, for which the outcome in the series with Streptococcus mutans [1] was inactive. Also, the solubility in series [3] (water, read-out: solubility) was determined as 1000 µg/mL (≈ 3050 µM).

On to `O=C(Nc1ccccc1)c1cccc2ccccc12`, for which, in the series with Streptococcus mutans [1], the outcome was inactive. Further, in the series with Streptococcus mutans [2] (setting [4]), the IC50 was over 300 µM.

On to `O=C(Nc1ccccc1)c1ccc(-c2ccccc2)cc1`, for which the outcome in the series on Streptococcus mutans [1] was inactive. Moreover, the half-inhibitory concentration (IC50) in the series on Streptococcus mutans [2] (setting [4]) was over 300 µM.

For the compound `COC(=O)c1ccc(NC(=O)c2ccc3ccccc3n2)cc1`, the result in the series with Streptococcus mutans [1] was inactive. The solubility in series [3] (water, read-out: solubility) turned out to be 25 µg/mL (≈ 81.6 µM).

Turning to `NCc1ccccc1NC(=O)c1cc2ccccc2s1`, the outcome in the series with Streptococcus mutans [1] was inactive. The 50% inhibitory concentration (IC50) with Streptococcus mutans [2] (setting [4]) came to 167 µM.

Turning to `NCc1ccccc1NC(=O)c1ccc2ccccc2c1`, the outcome in the series with Streptococcus mutans [1] was inactive.

Consider `NC(=O)c1ccc(NC(=O)c2cccc3ccccc23)cc1`, for which the outcome with Streptococcus mutans [1] was inactive. Besides, in series [3] (water, read-out: solubility), the solubility was under 5 µg/mL.

On to `NC(=O)c1cccc(NC(=O)c2cccc3ccccc23)c1`, for which the result in the series on Streptococcus mutans [1] was inactive. Besides, the solubility in series [3] (water, read-out: solubility) is 10 µg/mL (≈ 34.4 µM).

Turning to `COC(=O)c1cccc(NC(=O)c2cnc3ccccc3c2)c1`, the outcome in the series with Streptococcus mutans [1] was inactive.

In the case of `COC(=O)c1ccc(NC(=O)c2cc3cc([N+](=O)[O-])ccc3o2)cc1`, the result in the series with Streptococcus mutans [1] was inactive. In addition, the solubility in series [3] (water, read-out: solubility) was 20 µg/mL (≈ 58.8 µM).

`NCc1ccccc1NC(=O)c1cc2cc([N+](=O)[O-])ccc2[nH]1`: in the series with Streptococcus mutans [1], the outcome was inactive.

As for `NC(=O)c1ccccc1NC(=O)c1cccc2ccccc12`, in the series on Streptococcus mutans [1], the result was inactive. For the same compound, in the series with Streptococcus mutans [2] (setting [4]), the IC50 is 150 µM.

In the case of `COc1ccc2[nH]c(C(=O)Nc3ccc(C(N)=O)cc3)cc2c1`, the result in the series with Streptococcus mutans [1] was inactive. In the series with Streptococcus mutans [2] (setting [4]), the IC50 is over 300 µM.

In the case of `COC(=O)c1ccc(NC(=O)c2cccc3ccccc23)cc1`, the result in the series with Streptococcus mutans [1] was inactive. Also, the half-maximal inhibitory concentration (IC50) with Streptococcus mutans [2] (setting [4]) was over 300 µM.

Take `NC(=O)c1ccccc1NC(=O)c1cc2cc([N+](=O)[O-])ccc2o1`: in the series with Streptococcus mutans [1], the outcome was inactive. The solubility in series [3] (water, read-out: solubility) was 5 µg/mL (≈ 15.4 µM).

Take `NC(=O)c1cccc(NC(=O)c2cc3ccccc3s2)c1`: in the series on Streptococcus mutans [1], the outcome was inactive. In addition, in series [3] (water, read-out: solubility), the solubility is under 5 µg/mL.

In the case of `NC(=O)c1ccc(NC(=O)c2cc3cc([N+](=O)[O-])ccc3s2)cc1`, the result in the series on Streptococcus mutans [1] was inactive. Besides, the IC50 in the series with Streptococcus mutans [2] (setting [4]) was over 300 µM.

Regarding `COC(=O)c1ccccc1NC(=O)c1ccc(-c2ccccc2)cc1`, the outcome with Streptococcus mutans [1] was inactive. Also, the half-inhibitory concentration (IC50) in the series on Streptococcus mutans [2] (setting [4]) was over 300 µM.
